Measurements: patent publication US5491131A, “Somatostatin-active polypeptide composition” (Applied Research Systems ARS Holding NV, priority 1989, dated 1996)
“Also recorded” adds a separate entry of the source.

Experiments:
[1] = system: rat mesangial cells in culture; experiment: Prevention of hydrogen peroxide induced contraction of mesangial cells (CSA); format: cell-based, Wistar rats; conditions: for effect on hydrogen peroxide induced reduction in CSA: preincubation 10 minutes before hydrogen peroxide 10^-4 M; for change in CSA compared with the control: somatostatin alone
Method: (§1) The mesangial cells were obtained after glomeruli isolation by differential sieving (R. P. Misra. Am. J. Clin. Pathol 1972 58 135-139) and collagenase digestion of kidney tissue from Wistar rats. The cell surface area (CSA) was measured using a digital planimeter.
(§2) Microphotographs were taken at different times and the CSA measured. Each experiment was repeated three times and a total of 8-15 cells were measured for each part of each experiment. The results are expressed as a percentage increase or decrease over the initial CSA, […].

[2] = system: rat mesangial cells in culture; experiment: Reversal of hydrogen peroxide induced contraction of mesangial cells (CSA); format: cell-based, Wistar rats; conditions: for effect on CSA of untreated cells: somatostatin alone
Method: as §1, §2

[3] = system: rat mesangial cells in culture; experiment: Prevention of angiotensin II induced contraction of mesangial cells (cell surface area, CSA); format: cell-based, Wistar rats; conditions: for effect on contractile effect of angiotensin (CSA): preincubation 10 minutes before angiotensin II 10^-8 M
Method: as §1
In experiments concerned with the ability of somatostatin to prevent contraction, the mesangial cells were incubated with somatostatin for ten minutes at a concentration of 10^-6 M or 10^-8 M before the addition of angiotensin II (10^-8 M) or hydrogen peroxide (10^-4 M).
(§3) In all these experiments, control cells lacked the addition of somatostatin, angiotensin II or hydrogen peroxide to the buffer.
as §2

[4] = system: rat mesangial cells in culture; experiment: Reversal of angiotensin II induced contraction of mesangial cells (CSA); format: cell-based, Wistar rats; conditions: FIG. 3
Method: as §1
In experiments concerned with the ability of somatostatin to revese contraction, the mesangial cells were incubated for 30 minutes with either angiotensin II or hydrogen peroxide (at the concentrations mentioned above) before somatostatin at a concentration of 10^-6 M or 10^-8 M was added to the cells.
as §3, §2

[5] = somatostatin infusions of 250 to 375 microgrammes; cited from earlier work
[6] = in vivo; cited from earlier work
guanylate cyclase = conditions: some cell types; cited from earlier work

## OO [hydrogen peroxide]
[1]; hydrogen peroxide 10^-4 M alone
  effect on CSA: significant reduction in CSA
[2]; hydrogen peroxide 10^-4 M alone, t=0 to t=60 minutes, FIGS. 7, 8, 10
  contraction of cells treated with only hydrogen peroxide: remained in a contracted state; also recorded: contracted to a significant degree

## C[C@H](N)C(=O)NCC(=O)N[C@H]1CSSC[C@@H](C(=O)O)NC(=O)[C@H](CO)NC(=O)[C@H]([C@@H](C)O)NC(=O)[C@H](Cc2ccccc2)NC(=O)[C@H]([C@@H](C)O)NC(=O)[C@H](CCCCN)NC(=O)[C@H](Cc2c[nH]c3ccccc23)NC(=O)[C@H](Cc2ccccc2)NC(=O)[C@H](Cc2ccccc2)NC(=O)[C@H](CC(N)=O)NC(=O)[C@H](CCCCN)NC1=O [somatostatin, Somatostatin]
[3]; cells pre-treated with somatostatin before addition of angiotensin II, FIG. 12
  cell size in microphotographs: substantially no change in the size of these cells
[3]; somatostatin 10^-6 M, FIG. 1
  effect on contractile effect of angiotensin (CSA): completely preventing the contractile effect of angiotensin II; also recorded: completely inhibited the contractile effect of angiotensin
[3]; somatostatin 10^-8 M, FIG. 2
  effect on contractile effect of angiotensin (CSA): the same effect occurs
[3]; somatostatin alone, 10^-6 M, FIG. 1
  effect in isolation on CSA: no significant effect
[4]; somatostatin alone, 10^-6 M
  change in CSA, incubated in isolation: did not observe any significant change in CSA
[1]; somatostatin 10^-6 M, FIG. 5
  effect on hydrogen peroxide induced reduction in CSA: equally effective in preventing the contractile effect; also recorded: prevented
[1]; somatostatin 10^-8 M, FIG. 6
  effect on hydrogen peroxide induced reduction in CSA: prevented
[1]; 10^-6 M, FIG. 5
  change in CSA compared with the control: did not in itself induce any significant change in CSA
[1]; 10^-8 M, FIG. 6
  change in CSA compared with the control: did not in itself induce any significant change in CSA
[2]; hydrogen peroxide at t=0, somatostatin added at t=30 minutes, read at t=60 minutes, FIG. 11
  cell size in microphotographs: relax to almost their original size
[2]; somatostatin 10^-6 M added 30 minutes after hydrogen peroxide 10^-4 M, read after a further 30 minutes, FIG. 7
  reversal of contractile effect of hydrogen peroxide (CSA): reverses contraction; also recorded: CSA returns to normal
[2]; somatostatin 10^-8 M added 30 minutes after hydrogen peroxide 10^-4 M, FIG. 8
  reversal of contractile effect of hydrogen peroxide (CSA): The same effect was demonstrated
[2]; 10^-6 M, FIG. 7
  effect on CSA of untreated cells: did not significantly effect CSA
[2]; 10^-8 M, FIG. 8
  effect on CSA of untreated cells: did not significantly effect CSA
[5]
  reduction in heart rate: about 10 beats per minute
[6]
  urinary calcium excretion: reduces
Guanylate cyclase
  intracellular cGMP concentrations: increase intracellular cGMP concentrations

## angiotensin II [contractile stimulus added to mesangial cells at 10^-8 M]
[3]; angiotensin II 10^-8 M alone, after 30 minutes incubation
  effect on CSA: significantly reducing the CSA
[4]; angiotensin II 10^-8 M alone
  persistence of induced contraction: persisted for 60 minutes
